Laboratory results: PMC13349481 (ACS chemical biology, 2025)

Test system: P-glycoprotein (Pgp, MDR1)
Experiment: MDCKII-MDR1 permeability and Pgp efflux
Assay type: in vitro ADME
Conditions: dog

COCCc1ccc(OCC(O)CNC(C)C)cc1 (centres unmarked) [metoprolol]
Papp A→B (MDCK-MDR1): 28.6 ×10⁻⁶ cm/s | Papp B→A (MDCK-MDR1): 28 ×10⁻⁶ cm/s | efflux ratio (MDCK-MDR1): 0.98 | recovery (MDCK-MDR1, recovery (%) A-B, MDCKII-MDR1, A-B): 109% | recovery (MDCK-MDR1, recovery (%) B-A, MDCKII-MDR1, B-A): 97.4%
